One assay deals with c-Raf (Homo sapiens, UniProt P04049). Nature of the assay: Luciferase-coupled chemiluminescence kinase assay (ATP consumption), c-Raf. The following applies: read-out: cRaf-1 IC50. Type of assay: biochemical. The protocol: (§1) Tyrosine kinase activity is determined by 1) measurement of kinase-dependent ATP consumption by in the presence of a generic substrate such as […], tyrosine (pEY), by luciferase/luciferin-mediated chemiluminescence or; 2) incorporation of radioactive phosphate derived from ^33P-ATP into a generic substrate which has been adsorbed onto the well surface of polystyrene microtiter plates. Phosphorylated substrate products are quantified by scintillation spectrometry.
(§2) Luciferase-Coupled Chemiluminescence Assay Protocol
(§3) Kinase activity is measured as the percent of ATP consumed following the kinase reaction using luciferase-luciferin-coupled chemiluminescence. Reactions were conducted in 384-well white, medium binding microtiter plates (Greiner). Kinase reactions were initiated by combining test compounds, ATP and kinase in a 20 uL volume. The reaction mixture was incubated at ambient temperature for 3 hrs. For c-Raf, B-Raf, and B-RafV599E, […] of the enzyme was pre-incubated with compound in 20 mM Tris pH 7.5, 10 mM MgCl2, 0.03% TX-100, and 1 mM DTT for 30 minutes at room temperature. Following the kinase reaction, a 20 μL aliquot of luciferase-luciferin mix was added and the chemiluminescence signal measured using a Victor^2 plate reader (Perkin Elmer). The luciferase-luciferin mix contained 50 mM HEPES, pH 7.8, 67 mM oxalic acid (pH 7.8), 5 (or 50) mM DTT, 0.4% Triton X-100, 0.25 mg/mL coenzyme A, 63 μM AMP, 28 μg/mL luciferin and 40,000 units/mL luciferase. Total ATP consumption was limited to 25-60% and the IC50 values correlate well with those determined by radiometric assays.

The target of another assay is B-Raf (Homo sapiens, UniProt P15056). As to the kind of experiment: Luciferase-coupled chemiluminescence kinase assay (ATP consumption), B-Raf. Type of assay: biochemical. The following applies: read-out: bRaf IC50. The protocol: as §1, §2, §3

As usually defined, the IC50 is the point on the concentration scale where inhibition reaches its midpoint.

Sequence of B-Raf (P15056 whole entry): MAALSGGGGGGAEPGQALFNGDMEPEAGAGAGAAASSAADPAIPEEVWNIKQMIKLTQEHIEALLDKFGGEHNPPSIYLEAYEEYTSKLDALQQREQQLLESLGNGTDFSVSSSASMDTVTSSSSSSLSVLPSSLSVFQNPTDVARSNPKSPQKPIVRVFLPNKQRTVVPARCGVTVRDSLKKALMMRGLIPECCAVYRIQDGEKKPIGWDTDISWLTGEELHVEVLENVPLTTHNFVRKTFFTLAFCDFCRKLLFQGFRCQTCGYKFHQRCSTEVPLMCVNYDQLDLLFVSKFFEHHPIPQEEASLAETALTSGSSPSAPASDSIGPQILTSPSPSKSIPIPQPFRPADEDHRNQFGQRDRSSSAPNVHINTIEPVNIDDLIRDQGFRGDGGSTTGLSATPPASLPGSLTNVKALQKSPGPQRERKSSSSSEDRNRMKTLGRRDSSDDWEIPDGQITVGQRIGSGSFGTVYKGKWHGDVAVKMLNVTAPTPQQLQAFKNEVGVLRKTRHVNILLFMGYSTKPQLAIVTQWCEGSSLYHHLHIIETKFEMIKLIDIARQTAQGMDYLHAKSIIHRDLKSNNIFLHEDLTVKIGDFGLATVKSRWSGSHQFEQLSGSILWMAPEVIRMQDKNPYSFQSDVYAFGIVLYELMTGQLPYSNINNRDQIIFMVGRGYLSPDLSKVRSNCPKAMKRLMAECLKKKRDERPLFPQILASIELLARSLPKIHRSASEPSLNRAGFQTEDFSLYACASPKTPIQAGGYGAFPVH
Sequence of c-Raf (P04049 whole entry): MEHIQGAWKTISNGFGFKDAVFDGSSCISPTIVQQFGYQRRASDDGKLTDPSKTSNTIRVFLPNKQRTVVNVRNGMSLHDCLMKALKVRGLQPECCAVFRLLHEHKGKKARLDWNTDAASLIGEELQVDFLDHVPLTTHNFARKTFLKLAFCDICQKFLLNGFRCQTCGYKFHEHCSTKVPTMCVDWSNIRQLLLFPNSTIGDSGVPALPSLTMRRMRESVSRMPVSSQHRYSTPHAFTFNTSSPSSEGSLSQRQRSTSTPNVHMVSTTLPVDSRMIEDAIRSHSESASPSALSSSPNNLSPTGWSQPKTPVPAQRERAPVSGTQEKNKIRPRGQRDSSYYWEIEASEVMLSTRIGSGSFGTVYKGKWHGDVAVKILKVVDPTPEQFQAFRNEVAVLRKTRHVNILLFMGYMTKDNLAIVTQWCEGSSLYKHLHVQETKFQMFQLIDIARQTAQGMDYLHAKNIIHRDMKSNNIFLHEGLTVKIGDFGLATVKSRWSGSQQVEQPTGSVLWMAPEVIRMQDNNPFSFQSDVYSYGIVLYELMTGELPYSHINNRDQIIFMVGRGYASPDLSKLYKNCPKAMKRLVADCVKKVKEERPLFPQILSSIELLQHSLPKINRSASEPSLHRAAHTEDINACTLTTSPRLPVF

As for `O=C1COc2ccc(C3(O)c4ccccc4C(=O)N3c3cccc(CO)c3)cc2N1` (stereo not drawn) [Entry 82, 6-{1-hydroxy-2-[3-(hydroxymethyl)phenyl]-3-oxo-2,3-dihydro-1H-isoindol-1-yl}-2H-1,4-benzoxazin-3(4H)-one], the IC50 on c-Raf and on B-Raf was 1 to 10 µM each time.

In the case of `O=C1COc2ccc(C3(O)c4ccccc4C(=O)N3c3ccccc3F)cc2N1` (stereo not drawn) [Entry 83, 6-[2-(2-fluorophenyl)-1-hydroxy-3-oxo-2,3-dihydro-1H-isoindol-1-yl]-2H-1,4-benzoxazin-3(4H)-one], the half-inhibitory concentration (IC50) is 1 to 10 µM on c-Raf and 0.1 to 1 µM on B-Raf.

On to `CNc1nc2cc(C3(O)c4ccccc4C(=O)N3Cc3ccccc3)ccc2[nH]1` (stereo not drawn) [Entry 84, 3-hydroxy-3-[2-(methylamino)-1H-benzimidazol-5-yl]-2-(phenylmethyl)-2,3-dihydro-1H-isoindol-1-one], for which the concentration for half-maximal inhibition (IC50) at c-Raf and at B-Raf was 1 to 10 µM in each case.

In the case of `O=C1COc2ccc(C3(O)c4ccccc4C(=O)N3c3cccc(-c4ccccc4)c3)cc2N1` (stereo not drawn) [Entry 85, 6-(2-biphenyl-3-yl-1-hydroxy-3-oxo-2,3-dihydro-1H-isoindol-1-yl)-2H-1,4-benzoxazin-3(4H)-one], the IC50 on c-Raf and at B-Raf was at least 10 µM throughout.

With `CN(C)Cc1cccc(N2C(=O)c3ccccc3C2(O)c2ccc3c(c2)NC(=O)CO3)c1` (stereo not drawn) [Entry 86, 6-(2-{3-[(dimethylamino)methyl]phenyl}-1-hydroxy-3-oxo-2,3-dihydro-1H-isoindol-1-yl)-2H-1,4-benzoxazin-3(4H)-one], the IC50 on c-Raf and at B-Raf was 1 to 10 µM throughout.

With `O=C1COc2ccc(C3(O)c4ccccc4C(=O)N3c3cc(Cl)cc(Cl)c3)cc2N1` (stereo not drawn) [Entry 87, 6-[2-(3,5-dichlorophenyl)-1-hydroxy-3-oxo-2,3-dihydro-1H-isoindol-1-yl]-2H-1,4-benzoxazin-3(4H)-one], the half-maximal inhibitory concentration (IC50) on c-Raf and on B-Raf was 1 to 10 µM throughout.

For the molecule `O=C1COc2ccc(C3(O)c4ccccc4C(=O)N3C3CCNCC3)cc2N1` (stereo not drawn) [Entry 88, 6-(1-hydroxy-3-oxo-2-piperidin-4-yl-2,3-dihydro-1H-isoindol-1-yl)-2H-1,4-benzoxazin-3(4H)-one], the IC50 at c-Raf and on B-Raf was at least 10 µM each time.

Turning to `CN(C)CCOc1cccc(N2C(=O)c3ccccc3C2(O)c2ccc3c(c2)NC(=O)CO3)c1` (stereo not drawn) [Entry 89, 6-[2-(3-{[2-(dimethylamino)ethyl]oxy}phenyl)-1-hydroxy-3-oxo-2,3-dihydro-1H-isoindol-1-yl]-2H-1,4-benzoxazin-3(4H)-one], the IC50 on c-Raf and on B-Raf was at least 10 µM each time.

Turning to `Cc1ccccc1N1C(=O)c2ccccc2C1(O)c1ccc2c(c1)NC(=O)CO2` (stereo not drawn) [Entry 90, 6-[1-hydroxy-2-(2-methylphenyl)-3-oxo-2,3-dihydro-1H-isoindol-1-yl]-2H-1,4-benzoxazin-3(4H)-one], the IC50 on c-Raf and at B-Raf was 1 to 10 µM throughout.

Consider `CN(C(=O)c1ccccc1C(=O)c1ccc2c(c1)NC(=O)CO2)c1ccccc1` [Entry 91, N-methyl-2-[(3-oxo-3,4-dihydro-2H-1,4-benzoxazin-6-yl)carbonyl]-N-phenylbenzamide], for which the IC50 on c-Raf and on B-Raf was at least 10 µM throughout.

Regarding `CCOC1(c2ccc3[nH]c(NC(=O)OC)nc3c2)c2ccccc2C(=O)N1Cc1ccccc1` (stereo not drawn) [Entry 92, methyl {5-[1-(ethyloxy)-3-oxo-2-(phenylmethyl)-2,3-dihydro-1H-isoindol-1-yl]-1H-benzimidazol-2-yl}carbamate], the half-maximal inhibitory concentration (IC50) on c-Raf and at B-Raf was 0.1 to 1 µM each time.

For `COC(=O)Nc1nc2cc(C(=O)c3ccccc3C(=O)OCc3ccccc3)ccc2[nH]1` [Entry 93, Phenylmethyl 2-[(2-{[(methyloxy)carbonyl]amino}-1H-benzimidazol-5-yl)carbonyl]benzoate], the IC50 on c-Raf and at B-Raf was 0.1 to 1 µM in each case.

Turning to `O=C1c2ccccc2C(O)(c2ccc3[nH]ncc3c2)N1Cc1ccccc1` (stereo not drawn) [Entry 94, 3-hydroxy-3-(1H-indazol-5-yl)-2-(phenylmethyl)-2,3-dihydro-1H-isoindol-1-one], the IC50 at c-Raf and at B-Raf was 0.1 to 1 µM each time.

As to `O=C1c2ccccc2C(O)(c2ccc3cn[nH]c3c2)N1Cc1ccccc1` (stereo not drawn) [Entry 95, 3-hydroxy-3-(1H-indazol-6-yl)-2-(phenylmethyl)-2,3-dihydro-1H-isoindol-1-one], the IC50 on c-Raf and at B-Raf was at least 10 µM each time.

Consider `CCOC(=O)Nc1nc2cc(C3(O)c4ccccc4C(=O)N3Cc3ccccc3)ccc2[nH]1` (stereo not drawn) [Entry 96, ethyl {5-[1-hydroxy-3-oxo-2-(phenylmethyl)-2,3-dihydro-1H-isoindol-1-yl]-1H-benzimidazol-2-yl}carbamate], for which the IC50 at c-Raf and on B-Raf was at least 10 µM in each case.

`CC(C)COC(=O)Nc1nc2cc(C3(O)c4ccccc4C(=O)N3Cc3ccccc3)ccc2[nH]1` (stereo not drawn) [Entry 97, 2-methylpropyl {5-[1-hydroxy-3-oxo-2-(phenylmethyl)-2,3-dihydro-1H-isoindol-1-yl]-1H-benzimidazol-2-yl}carbamate]: the IC50 on c-Raf and on B-Raf was 0.1 to 1 µM each time.

As to `COC(=O)Nc1nc2cc(C3(O)c4ccccc4C(=O)N3Cc3cccs3)ccc2[nH]1` (stereo not drawn) [Entry 98, methyl {5-[1-hydroxy-3-oxo-2-(2-thienylmethyl)-2,3-dihydro-1H-isoindol-1-yl]-1H-benzimidazol-2-yl}carbamate], the 50% inhibitory concentration (IC50) on c-Raf and at B-Raf was under 0.1 µM each time.

In the case of `COC(=O)Nc1nc2cc(C3(O)c4ccccc4C(=O)N3CCc3ccccc3)ccc2[nH]1` (stereo not drawn) [Entry 99, methyl {5-[1-hydroxy-3-oxo-2-(2-phenylethyl)-2,3-dihydro-1H-isoindol-1-yl]-1H-benzimidazol-2-yl}carbamate], the IC50 on c-Raf and on B-Raf was 1 to 10 µM in each case.

For `CC(C)(C)n1c(N)nc2cc(C3(O)c4ccccc4C(=O)N3Cc3ccccc3)ccc21` (stereo not drawn) [Entry 100, 3-[2-amino-1-(1,1-dimethylethyl)-1H-benzimidazol-5-yl]-3-hydroxy-2-(phenylmethyl)-2,3-dihydro-1H-isoindol-1-one], the IC50 at c-Raf and on B-Raf was at least 10 µM each time.

For `Nc1nc2cc(C3(O)c4ccccc4C(=O)N3Cc3ccccc3)ccc2[nH]1` (stereo not drawn) [Entry 101, 3-(2-amino-1H-benzimidazol-5-yl)-3-hydroxy-2-(phenylmethyl)-2,3-dihydro-1H-isoindol-1-one], the IC50 on c-Raf and on B-Raf was 1 to 10 µM in each case.

For the molecule `COC(=O)Nc1nc2cc(C3(O)NC(=O)c4ccccc43)ccc2[nH]1` (stereo not drawn) [Entry 102, methyl [5-(1-hydroxy-3-oxo-2,3-dihydro-1H-isoindol-1-yl)-1H-benzimidazol-2-yl]carbamate], the IC50 on c-Raf and at B-Raf was at least 10 µM each time.

As to `COC(C)CCOC(=O)Nc1nc2cc(C3(O)c4ccccc4C(=O)N3Cc3ccccc3)ccc2[nH]1` (stereo not drawn) [Entry 103, 3-(methyloxy)butyl {5-[1-hydroxy-3-oxo-2-(phenylmethyl)-2,3-dihydro-1H-isoindol-1-yl]-1H-benzimidazol-2-yl}carbamate], the IC50 on c-Raf and on B-Raf was under 0.1 µM in each case.

For the molecule `COC(=O)Nc1nc2cc(C3(O)c4ccccc4C(=O)N3[C@H](C)c3ccccc3)ccc2[nH]1` (stereo partly drawn) [Entry 104, methyl (5-{1-hydroxy-3-oxo-2-[(1R)-1-phenylethyl]-2,3-dihydro-1H-isoindol-1-yl}-1H-benzimidazol-2-yl)carbamate], the IC50 on c-Raf and on B-Raf was under 0.1 µM throughout.

As to `COC(=O)Nc1nc2cc(C3(O)c4ccccc4C(=O)N3[C@@H](C)c3ccccc3)ccc2[nH]1` (stereo partly drawn) [Entry 105, methyl (5-{1-hydroxy-3-oxo-2-[(1S)-1-phenylethyl]-2,3-dihydro-1H-isoindol-1-yl}-1H-benzimidazol-2-yl)carbamate], the IC50 at c-Raf and at B-Raf was 1 to 10 µM in each case.

In the case of `COCCOC(=O)Nc1nc2cc(C3(O)c4ccccc4C(=O)N3Cc3ccccc3)ccc2[nH]1` (stereo not drawn) [Entry 106, 2-(methyloxy)ethyl {5-[1-hydroxy-3-oxo-2-(phenylmethyl)-2,3-dihydro-1H-isoindol-1-yl]-1H-benzimidazol-2-yl}carbamate], the IC50 on c-Raf and on B-Raf was under 0.1 µM throughout.

Turning to `COC(=O)Nc1nc2ccc(C3(O)c4ccccc4C(=O)N3Cc3ccccc3)cc2n1C` (stereo not drawn) [Entry 107, methyl {6-[1-hydroxy-3-oxo-2-(phenylmethyl)-2,3-dihydro-1H-isoindol-1-yl]-1-methyl-1H-benzimidazol-2-yl}carbamate], the IC50 on c-Raf and on B-Raf was at least 10 µM each time.

Turning to `C#CCOC(=O)Nc1nc2cc(C3(O)c4ccccc4C(=O)N3Cc3ccccc3)ccc2[nH]1` (stereo not drawn) [Entry 108, prop-2-yn-1-yl {5-[1-hydroxy-3-oxo-2-(phenylmethyl)-2,3-dihydro-1H-isoindol-1-yl]-1H-benzimidazol-2-yl}carbamate], the IC50 at c-Raf and at B-Raf was under 0.1 µM throughout.

These data come from patent US7846959B2, “Raf modulators and methods of use” (Exelixis, Inc., priority 2004, dated 2010).
